Patent US9259420B2, “Tetrandrine pharmaceutical formulations” (CBA Pharma, Inc., priority 2012, dated 2016)

Tests used:
[1] = dissolution in water when preparing the liquid dosing formulation; assay type: physicochemical; conditions: for 200 mg/kg dosing preparation
Experimental: Thus three animals were administered 200 mg/kg of each the acid and base formulations in liquid or suspension, respectively, to determine if the dosing and/or variability would improve. […] The solution, and suspension were prepared in water with 0.25% carboxymethylcellulose to facilitate fluidity during dosing. Samples were collected at 30 minutes, 1, 2, 5 and 24 hours after administration of […].

[2] = bioequivalence study in rats: d-tetrandrine plasma concentration after oral gavage of free base versus hydrochloride salt (HPLC); assay type: in vivo, Sprague-Dawley rats
Experimental: A bioequivalence study in rats was conducted to compare the rate and extent to which the active drug ingredient (d-tetrandrine) is absorbed from a free base versus a hydrochloride salt. The drug ingredients were formulated in capsules by the University of Kentucky Center for Pharmaceutical Sciences and Technology (CPST) to administer equivalent amounts of d-tetrandrine to rats via oral gavage. Dosing syringes, capsule filling apparatus and mini capsules (size 9) appropriate for dosing rats were obtained from Torpac (Fairfield, N.J.).
A single rat per time point (destructive sampling) was used to obtain as much blood volume as possible for the HPLC analysis. This was necessary to accommodate analysis with the current UV based HPLC assay that had extensively been used at CBA Pharma. The JPLC analyses were performed at the CBA Pharma facilities, by a scientist with extensive experience in plasma based assay. Results were provided to a second scientist for evaluation and modeling.
Given the limited information on rat d-tetrandrine pharmacokinetics (PK), the studies were conducted in stages. A preliminary study (pilot) to identify the dose required for adequate assay sensitivity was first conducted using approximately 25 mg/kg and approximately 120 mg/kg doses administered in capsules. Four animals per dose level per formulation (acid or base) were administered drug. Sprague-Dawley rats were used for these studies and were obtained from Harlan Laboratories at least one weak prior to the experiments to allow animals to recover from shipping stress and to acclimate. Animals weighed 200-250 g at the time of the experiments. Animals were euthanized one hour after drug administration and blood was collected in EDTA containing tubes via cardiac puncture and rapidly centrifuged to separate the plasma. Typically, enough plasma was obtained to afford duplicate sample analysis. The plasma was stored at −80° C. until it was transported to CBA Pharma facilities in Styrofoam containers containing dry ice.
However, multiple capsules required for dosing higher doses were contributing to the pharmacokinetic variability observed in initial pilot studies. Thus in subsequent studies, younger and smaller animals were administered doses of approximately 150 mg/kg, and blood samples were obtained two hours after drug administration. These smaller animals were more difficult to dose because the size of the tablet. Three animals from the “acid” group and two animals from the “base” group were excluded based on the technician's judgment that some tissue damage had been done to the animals during the gavage dosing. […]
In some cases the plasma concentrations could not be determined due to extremely high interfering peaks. […]

## COc1ccc2cc1Oc1ccc(cc1)C[C@H]1c3cc(c(OC)cc3CCN1C)Oc1c(OC)c(OC)cc3c1[C@H](C2)N(C)CC3 [d-tetrandrine]
[1]
  solubility in water: did not dissolve in water
[2]; free base formulations compared with di-acid salt formulations
  rate of absorption into the bloodstream, free base versus di-acid salt: substantially as rapidly as formulations of the di-acid salt
[2]; rats, 100 mg/kg, liquid/suspension, oral gavage, sampled up to 48 hours, FIG. 4
  d-tetrandrine plasma concentrations relative to the limit of the HPLC assay: well above the qualification limit of the HPLC assay for 48 hours
[2]; rats, 100 mg/kg, oral gavage, p>0.05, FIG. 6
  AUC estimates (Bailer method), acid versus base formulation: no statistical or otherwise significant difference
[2]; rats, higher dose (approximately 230 mg/kg capsules, 200 mg/kg liquid/suspension), oral gavage, Student t-test, two-tailed, p>0.05, FIG. 2
  plasma concentrations and dose normalized plasma concentrations, comparison of d-tetrandrine and d-tetrandrine-2HCl formulations: no statistical difference
